Earlier results on 44 compounds are cited in paper PMC8025584, “Identification of multipotent drugs for COVID-19 therapeutics with the evaluation of their SARS-CoV2 inhibitory activity” (Computational and Structural Biotechnology Journal, 2021).

Structures can show the parent of a compound that is named as a salt. Where two headings read alike, the source gives them in different places.

In the series the test system is differentially expressed human proteins in COVID-19. The settings on record: cited from earlier work.
[1] abbreviates: gene CACNA1A, drug-gene interaction listed in DGIdb export, ref DGIdb.
Setting [2] is: gene TNF, drug-gene interaction listed in DGIdb export, ref DGIdb.

With `CC1(C)O[C@@H]2[C@@H](CO[C@@]3(COS(N)(=O)=O)OC(C)(C)O[C@@H]23)O1` [TOPIRAMATE], the interaction_types result (gene CA1, ref DGIdb) is on record as “inhibitor”. For `CC(C)(C#N)c1cc(Cn2cncn2)cc(C(C)(C)C#N)c1` [ANASTROZOLE], the interaction_types result (gene CYP19A1, ref DGIdb) is reported as “inhibitor”. For the compound `C[C@H]1CC(CN)(CC(=O)O)C[C@@H]1C` [ATAGABALIN], the interaction_types result under setting [1] is on record as “modulator”. As for `NS(=O)(=O)c1cc2c(cc1Cl)NC(C(Cl)Cl)NS2(=O)=O` (stereo not drawn) [TRICHLORMETHIAZIDE, reference compound], under “gene CA1, ref DGIdb”, the interaction_types entry is “inhibitor”. For the compound `C#CC1(OC(N)=O)CCCCC1` [ETHINAMATE], the interaction_types result is listed as “inhibitor”. As to `CCOC(=O)c1ccc(C#Cc2ccc3c(c2)C(C)(C)CCS3)nc1` [TAZAROTENE, reference compound], the interaction_types result (gene RXRB, ref DGIdb) is “agonist”. For the compound `Nc1ccc(SC[C@@H]2CO[C@](CCc3ccc(Cl)cc3)(Cn3ccnc3)O2)cc1` [AZALANSTAT], the interaction_types result (gene CYP19A1, ref DGIdb) is given as “inhibitor”.

In the case of `NS(=O)(=O)c1cc2c(cc1C(F)(F)F)NC(Cc1ccccc1)NS2(=O)=O` (stereo not drawn) [BENDROFLUMETHIAZIDE], the interaction_types result (gene CA1, ref DGIdb) is “inhibitor”.

Regarding `C[C@]1(C(=O)N(CCCC(=O)O)Cc2cccc(Cl)c2)CCN1C(=O)c1csc2ccccc12` [GLPG-0974], the interaction_types entry (gene FFAR2, ref DGIdb) is given as “antagonist”. Consider `COc1ccc2c(c1)[C@]13CCCC[C@@H]1[C@H](C2)N(C)CC3` [DEXTROMETHORPHAN], for which the interaction_types entry (gene CYBB, ref DGIdb) is given as “inhibitor”.

With `C/C(=C\c1csc(C)n1)[C@@H]1C[C@@H]2O[C@]2(C)CCC[C@H](C)[C@H](O)[C@@H](C)C(=O)C(C)(C)[C@@H](O)CC(=O)N1` [IXABEPILONE], the interaction_types result (gene TUBA4A, ref DGIdb) is “inhibitor”.

On to `CNC[C@H](O)c1ccc(O)c(O)c1` [EPINEPHRINE], for which the interaction_types entry was “agonist¦antagonist”. As for `Nc1ccncc1` [DALFAMPRIDINE], the interaction_types entry (gene KCNH7, ref DGIdb) is “blocker”. With `CCCc1c2oc(C(=O)O)cc(=O)c2cc2c(=O)cc(C(=O)O)n(CC)c12` [NEDOCROMIL, reference compound], the interaction_types result (gene FPR1, ref DGIdb) is “antagonist”. As for `NS(=O)(=O)Cc1noc2ccccc12` [ZONISAMIDE], the interaction_types entry (gene CA1, ref DGIdb) is recorded as “inhibitor”. Turning to `CCc1c2c(nc3ccc(OC(=O)N4CCC(N5CCCCC5)CC4)cc13)-c1cc3c(c(=O)n1C2)COC(=O)[C@]3(O)CC` [IRINOTECAN, reference compound], where the note is “gene ISG15, ref DGIdb”, the interaction_types entry is reported as “inhibitor”. As for `COc1cc(C)c(/C=C/C(C)=C/C=C/C(C)=C/C(=O)O)c(C)c1C` [ACITRETIN], under “gene RXRB, ref DGIdb”, the interaction_types entry is listed as “agonist”.

On to `COc1ccc(CCN(C)CCCC(C#N)(c2ccc(OC)c(OC)c2)C(C)C)cc1OC` (stereo not drawn), for which, under setting [1], the interaction_types entry is on record as “inhibitor”. As to `CNC(=O)[C@@H](NC(=O)[C@H](CC(C)C)[C@H](O)C(=O)NO)C(C)(C)C`, the interaction_types entry (gene MMP8, ref DGIdb) was “inhibitor”. With `Cc1ccc2c(=O)c3cccc(CC(=O)O)c3oc2c1C` [VADIMEZAN], under setting [2], the interaction_types entry is given as “inducer”. Turning to ETANERCEPT, the interaction_types entry under setting [2] is “inhibitor¦antibody”. Take `N#Cc1ccc(C2CCCc3cncn32)cc1` (stereo not drawn) [FADROZOLE]: the interaction_types result is reported as “inhibitor”.

As for `CN(C)C(=N)N=C(N)N` [METFORMIN], the interaction_types result (gene PRKAB1, ref DGIdb) is given as “activator¦inducer”. `O=c1cc(-c2ccccc2)oc2cc(O)cc(O)c12` [CHRYSIN]: the interaction_types result (gene CYP1A1, ref DGIdb) is given as “inhibitor”. Take `Cc1c(CN2CCN(C(=O)[C@H](C)O)CC2)sc2c(N3CCOCC3)nc(-c3cnc(N)nc3)nc12` [APITOLISIB]: the interaction_types result (gene FGR, ref DGIdb) is on record as “inhibitor”. Turning to REGRAMOSTIM, the interaction_types entry (gene CSF2RB, ref DGIdb) is given as “agonist”.

Consider `NS(=O)(=O)c1cc(C2(O)NC(=O)c3ccccc32)ccc1Cl` (stereo not drawn) [CHLORTHALIDONE, reference compound], for which, for the setting “gene CA1, ref DGIdb”, the interaction_types entry is “inhibitor”. In the case of `CSCC[C@@H]1NC(=O)[C@H](CC(C)C)NC(=O)[C@H](CCCNC(=N)N)NC(=O)[C@H](CO)NC(=O)[C@@H]2CSSC[C@@H]3NC(=O)[C@H](CO)NC(=O)CNC(=O)[C@H]([C@@H](C)O)NC(=O)[C@H](CSSC[C@H](N)C(=O)N[C@@H](CCCCN)C(=O)NCC(=O)N[C@@H](CCCCN)C(=O)NCC(=O)N[C@@H](C)C(=O)N[C@@H](CCCCN)C(=O)N2)NC(=O)[C@H](CSSC[C@@H](C(N)=O)NC(=O)[C@H](CCCCN)NC(=O)CNC(=O)[C@H](CO)NC(=O)[C@H](CCCNC(=N)N)NC3=O)NC(=O)[C@H](CC(=O)O)NC(=O)[C@H](Cc2ccc(O)cc2)NC1=O` [ZICONOTIDE], the interaction_types entry is reported as “inhibitor”. Turning to `CC(/C=C/[C@@H]1C[C@]1(C)c1ccc2c(c1)C(C)(C)CCC2(C)C)=C\C(=O)O` [IRX-4204], where the note is “gene RXRB, ref DGIdb”, the interaction_types result is reported as “agonist”. For the compound CEPROTIN, the interaction_types result (gene F5, drug-gene interaction listed in DGIdb export, ref DGIdb) is listed as “inactivator”. For the compound `Cc1nc(Nc2ncc(C(=O)Nc3c(C)cccc3Cl)s2)cc(N2CCN(CCO)CC2)n1` [DASATINIB], the interaction_types result was “inhibitor” (gene FGR, ref DGIdb) and “inhibitor” (gene HCK, drug-gene interaction listed in DGIdb export, ref DGIdb).

With BAMINERCEPT, the interaction_types entry (gene TNFSF14, ref DGIdb) is recorded as “inhibitor”. Turning to `O=c1nc(OC[C@@H]2COCCO2)cc2n1CCc1cc(C#CC3CC3)ccc1-2` [GLPG-1205], the interaction_types result (gene GPR84, ref DGIdb) was “antagonist”.

On to `c1ccc(-c2[nH]ncc2-c2ccnc3ccccc23)nc1` [chembl:CHEMBL261454], for which, where the note is “gene GAK, drug-gene interaction listed in DGIdb export, ref DGIdb”, the interaction_types result is “inhibitor”. As for `C[C@@H]1O[C@@H](O[C@@H]2[C@@H](NC(=O)c3cc(=O)[nH]c(=O)[nH]3)C[C@@H](C(=O)NCCNC(=O)COCCOCC(=O)Nc3cc(S(=O)(=O)O)cc4cc(S(=O)(=O)O)cc(S(=O)(=O)O)c34)C[C@H]2O[C@@H]2O[C@H](CO)[C@H](O)[C@H](O[C@@H](CC3CCCCC3)C(=O)O)[C@H]2OC(=O)c2ccccc2)[C@@H](O)[C@H](O)[C@@H]1O` [[…]], the interaction_types entry (gene SELL, ref DGIdb) is listed as “antagonist”. Take `O=C(O)Cc1cccc(-c2cc(CCCCCCc3ccc(O[C@H]4O[C@H](CO)[C@@H](O)[C@H](O)[C@@H]4O)c(-c4cccc(CC(=O)O)c4)c3)ccc2O[C@H]2O[C@H](CO)[C@@H](O)[C@H](O)[C@@H]2O)c1` [BIMOSIAMOSE]: for the setting “gene SELL, ref DGIdb”, the interaction_types result is on record as “inhibitor”. As for `CC(OC(=O)NCC1(CC(=O)O)CCCCC1)OC(=O)C(C)C` (stereo not drawn) [GABAPENTIN ENACARBIL, reference compound], the interaction_types result under setting [1] is recorded as “modulator”. With `COc1cc(N2CCN(C(=O)Cn3nc(-c4ncc[nH]4)c4cccnc43)CC2)ccc1Cl` [CCX354], under “gene CCR1, drug-gene interaction listed in DGIdb export, ref DGIdb”, the interaction_types result is “antagonist”. Take `O=C(Nc1ccncc1)C(=O)c1cn(Cc2ccc(Cl)cc2)c2ccccc12` [INDIBULIN]: the interaction_types entry (gene TUBA4A, ref DGIdb) is reported as “inhibitor”. Regarding `N#Cc1ccc(C(c2ccc(C#N)cc2)n2cncn2)cc1` [LETROZOLE], for the setting “gene CYP19A1, ref DGIdb”, the interaction_types entry is “antagonist¦inhibitor”. For `Nc1cnc(-c2cc(Cl)cc(Cl)c2Cl)c(N)n1` [[…]], the interaction_types result under setting [1] is reported as “blocker”.

In the case of `CC[C@]1(O)C[C@@H]2CN(CCc3c([nH]c4ccccc34)[C@@](C(=O)OC)(c3cc4c(cc3OC)N(C)[C@H]3[C@@](O)(C(=O)OC)[C@H](OC(C)=O)[C@]5(CC)C=CCN6CC[C@]43[C@@H]65)C2)C1` [VINBLASTINE SULFATE], the interaction_types result (gene TUBA4A, ref DGIdb) is “inhibitor”. For the compound `CSCCNc1nc(SCCC(F)(F)F)nc2c1ncn2[C@@H]1O[C@H](COP(=O)(O)OP(=O)(O)C(Cl)(Cl)P(=O)(O)O)[C@@H](O)[C@H]1O` [Cangrelor, reference compound], the interaction_types result (gene P2RY13, ref DGIdb) is “antagonist”.

On to `NS(=O)(=O)c1cc2c(cc1Cl)NC(C1CC3C=CC1C3)NS2(=O)=O` (stereo not drawn) [CYCLOTHIAZIDE, reference compound], for which the interaction_types result (gene CA1, ref DGIdb) is reported as “inhibitor”.
